# Experimental data taken from patent EP3375430A1, “FRAGRANCE COMPOSITIONS” (Takasago International Corporation, priority 2017, dated 2018).
# Columns and labels:
# [1] = Amount of fragrance ingredients retained on paper blotter after evaporation (ethanol extraction, GC-MS); type: physicochemical
# Outline: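 100 µL of fragrance formulation applied to paper blotters kept at 32°C open to air; at each time three blotters extracted 1 h in ethanol with methyl decanoate internal standard and analysed by GC-MS (HP-5MS, 50–280°C). Amounts averaged over triplicates and expressed as percent of time-zero level.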
# [2] = Headspace concentration of fragrance ingredients over blotter (thermal desorption GC-MS); type: physicochemical; conditions: fragrance TAK;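 as to headspace concentration in composition C1 compared to control EdT1: C1 is an invention composition and EdT1 a conventional EdT of fragrance TAK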
# Outline: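 Fragrance (100µL) applied to a 10 cm perfumers' blotter held on a 32°C hot plate, equilibrated 5 min; headspace drawn through Tenax TA tubes at 17mL/min until 280mL collected, repeated at later sampling times. Tubes thermally desorbed splitless onto HP-5MS column, GC-MS detection, mass range 35 to 350.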
structure (smiles),measurement,setting,value
C=CC(C)(CCC=C(C)C)OC(C)=O (stereo not drawn) [Linalyl acetate],amount of fragrance ingredient retained on blotter (percentage of the initial amount),"[1]; Table 3, fragrance TAK in C1, 15 min, 32°C",79%
same,amount of fragrance ingredient retained on blotter (percentage of the initial amount),"[1]; Table 3, fragrance TAK in C1, 60 min, 32°C",62%
same,amount of fragrance ingredient retained on blotter (percentage of the initial amount),"[1]; Table 3, fragrance TAK in C1, 120 min, 32°C",39%
same,amount of fragrance ingredient retained on blotter (percentage of the initial amount),"[1]; Table 3, fragrance TAK in C1, 240 min, 32°C",19%
same,amount of fragrance ingredient retained on blotter (percentage of the initial amount),"[1]; Table 3, fragrance TAK in C1, 480 min, 32°C",7%
same,amount of fragrance ingredient retained on blotter (percentage of the initial amount),"[1]; Table 3, fragrance TAK in EdT1, 15 min, 32°C",70%
same,amount of fragrance ingredient retained on blotter (percentage of the initial amount),"[1]; Table 3, fragrance TAK in EdT1, 60 min, 32°C",27%
same,amount of fragrance ingredient retained on blotter (percentage of the initial amount),"[1]; Table 3, fragrance TAK in EdT1, 120 min, 32°C",6%
same,amount of fragrance ingredient retained on blotter (percentage of the initial amount),"[1]; Table 3, fragrance TAK in EdT1, 240 min, 32°C",2%
same,amount of fragrance ingredient retained on blotter (percentage of the initial amount),"[1]; Table 3, fragrance TAK in EdT1, 480 min, 32°C",<1%
same,amount of fragrance ingredient retained on blotter (percentage of the initial amount),"[1]; Table 3, fragrance TAK in EdT1 or C1, T0, set at 100% (normalisation)",100%
same,amount of fragrance ingredient retained on blotter (percentage of the initial amount),"[1]; Table 4, fragrance TAK in C2, 15 min, 32°C",92%
same,amount of fragrance ingredient retained on blotter (percentage of the initial amount),"[1]; Table 4, fragrance TAK in C2, 480 min, 32°C",9%
same,amount of fragrance ingredient retained on blotter (percentage of the initial amount),"[1]; Table 4, fragrance TAK in EdT1, 15 min, 32°C",72%
same,amount of fragrance ingredient retained on blotter (percentage of the initial amount),"[1]; Table 4, fragrance TAK in EdT1, 480 min, 32°C",2%
same,amount of fragrance ingredient retained on blotter (percentage of the initial amount),"[1]; Table 4, fragrance TAK in EdT1 or C2, T0, set at 100% (normalisation)",100%
same,amount of fragrance ingredient retained on blotter (percentage of the initial amount),"[1]; Table 5, fragrance TAK in C3, 15 min, 32°C",83%
same,amount of fragrance ingredient retained on blotter (percentage of the initial amount),"[1]; Table 5, fragrance TAK in C3, 60 min, 32°C",62%
same,amount of fragrance ingredient retained on blotter (percentage of the initial amount),"[1]; Table 5, fragrance TAK in C3, 120 min, 32°C",41%
same,amount of fragrance ingredient retained on blotter (percentage of the initial amount),"[1]; Table 5, fragrance TAK in C3, 240 min, 32°C",24%
same,amount of fragrance ingredient retained on blotter (percentage of the initial amount),"[1]; Table 5, fragrance TAK in C3, 480 min, 32°C",8%
same,amount of fragrance ingredient retained on blotter (percentage of the initial amount),"[1]; Table 5, fragrance TAK in C3, 1440 min, 32°C",3%
same,amount of fragrance ingredient retained on blotter (percentage of the initial amount),"[1]; Table 5, fragrance TAK in EdT1, 15 min, 32°C",70%
same,amount of fragrance ingredient retained on blotter (percentage of the initial amount),"[1]; Table 5, fragrance TAK in EdT1, 60 min, 32°C",26%
same,amount of fragrance ingredient retained on blotter (percentage of the initial amount),"[1]; Table 5, fragrance TAK in EdT1, 120 min, 32°C",6%
same,amount of fragrance ingredient retained on blotter (percentage of the initial amount),"[1]; Table 5, fragrance TAK in EdT1, 240 min, 32°C",2%
same,amount of fragrance ingredient retained on blotter (percentage of the initial amount),"[1]; Table 5, fragrance TAK in EdT1, 480 min, 32°C",<1%
same,amount of fragrance ingredient retained on blotter (percentage of the initial amount),"[1]; Table 5, fragrance TAK in EdT1, 1440 min, 32°C",<1%
same,amount of fragrance ingredient retained on blotter (percentage of the initial amount),"[1]; Table 5, fragrance TAK in EdT1 or C3, T0, set at 100% (normalisation)",100%
same,amount of fragrance ingredient retained on blotter (percentage of the initial amount),"[1]; Table 6, fragrance TAK in C4, 15 min, 32°C",82%
same,amount of fragrance ingredient retained on blotter (percentage of the initial amount),"[1]; Table 6, fragrance TAK in C4, 60 min, 32°C",62%
same,amount of fragrance ingredient retained on blotter (percentage of the initial amount),"[1]; Table 6, fragrance TAK in C4, 120 min, 32°C",34%
same,amount of fragrance ingredient retained on blotter (percentage of the initial amount),"[1]; Table 6, fragrance TAK in C4, 240 min, 32°C",18%
same,amount of fragrance ingredient retained on blotter (percentage of the initial amount),"[1]; Table 6, fragrance TAK in C4, 480 min, 32°C",10%
same,amount of fragrance ingredient retained on blotter (percentage of the initial amount),"[1]; Table 6, fragrance TAK in EdT1, 15 min, 32°C",70%
same,amount of fragrance ingredient retained on blotter (percentage of the initial amount),"[1]; Table 6, fragrance TAK in EdT1, 60 min, 32°C",27%
same,amount of fragrance ingredient retained on blotter (percentage of the initial amount),"[1]; Table 6, fragrance TAK in EdT1, 120 min, 32°C",6%
same,amount of fragrance ingredient retained on blotter (percentage of the initial amount),"[1]; Table 6, fragrance TAK in EdT1, 240 min, 32°C",2%
same,amount of fragrance ingredient retained on blotter (percentage of the initial amount),"[1]; Table 6, fragrance TAK in EdT1, 480 min, 32°C",<1%
same,amount of fragrance ingredient retained on blotter (percentage of the initial amount),"[1]; Table 6, fragrance TAK in EdT1 or C4, T0, set at 100% (normalisation)",100%
same,headspace concentration in composition C1 compared to control EdT1,"[2]; T0 + 4h, Figure 3",significantly greater
same,headspace concentration in composition C14 compared to control EdT1,"[2]; T0+4h and T0+8h, Figures 17 and 18",significantly greater
same,headspace concentration in composition C15 compared to control EdT1,"[2]; T0+4h and T0+8h, Figures 20 and 21, difference significant for linalool, linalyl acetate and Verdox™",greater
same,headspace concentration in composition C1 compared to control EdT1,"[2]; T0 + 8h, Figure 4",much greater
same,headspace concentration in composition C1 compared to control EdT1,"[2]; after 1 hour, Figure 2",greater
